Test results as given in publication PMC4029172 (eLife, 2014).
pIC50, pKi: −log10 of the molar value. Converted amounts (≈) assume the structure as drawn. Numbered stars: 1 amine (or outer) side, 2 acyl side, 3 side chain; on linkers, the order of the positions; unused ones are H or OH. Bridge positions count the residues as written; N and C are the ends. Square brackets hold non-standard residues; d marks the D form. Peptide text beside a SMILES is read from it. * marks the point of attachment. X5 = C[C@@H](Oc1ccc([C@H](N[*:1])C(=O)[*:2])cc1)[C@](O)(/C=C/C(=O)[*:3])CBr; X4 = CC(Oc1ccc(C(N[*:1])C(=O)[*:2])cc1)C(O)(C=CC(=O)[*:3])CCl; Pentanoyl(2R-Me,3R-OH,4-Me) = CC(C)[C@@H](O)[C@@H](C)C(=O)*; d(aIle) = CC[C@H](C)[C@@H](N)C(=O)O; d(aThr) = C[C@@H](O)[C@@H](N)C(=O)O; NMeF = CN[CH](Cc1ccccc1)C(=O)O; X3 = CC(C)C(O)C(C)C(=O)*

Assays:
[1] = test system: E. coli D21f2tolC Sal-resistant mutants; assay: Cross-resistance levels of Sal-resistant mutants; type: cell-based, Escherichia coli; conditions: wild-type reference of Figure 4B
[2] = test system: E. coli D21f2tolC Rif-, Stl-, CBR703-, Myx- and Lpm-resistant mutants; assay: Cross-resistance levels of Rif-, Stl-, CBR703-, Myx- and Lpm-resistant mutants; type: cell-based, Escherichia coli; conditions: wild-type reference of Figure 4C
[3] = biological target: T1, E. coli RNAP holoenzyme (Escherichia coli, UniProt P0A8T7+P0A8V2); type: biochemical
T1 sequence (P0A7Z4 whole entry): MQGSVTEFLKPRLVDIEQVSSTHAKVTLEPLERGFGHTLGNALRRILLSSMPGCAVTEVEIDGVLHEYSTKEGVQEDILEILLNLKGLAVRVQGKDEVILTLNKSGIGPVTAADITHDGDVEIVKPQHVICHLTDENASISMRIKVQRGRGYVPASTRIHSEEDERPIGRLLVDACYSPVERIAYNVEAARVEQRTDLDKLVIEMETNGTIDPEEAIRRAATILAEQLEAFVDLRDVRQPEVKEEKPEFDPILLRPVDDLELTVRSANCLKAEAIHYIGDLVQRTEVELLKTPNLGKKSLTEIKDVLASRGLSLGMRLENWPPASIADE
T1 sequence (P0A800 whole entry, further chain): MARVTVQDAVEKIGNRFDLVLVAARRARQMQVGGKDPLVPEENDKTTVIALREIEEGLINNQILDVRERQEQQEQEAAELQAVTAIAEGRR
T1 sequence (P0A8T7 whole entry): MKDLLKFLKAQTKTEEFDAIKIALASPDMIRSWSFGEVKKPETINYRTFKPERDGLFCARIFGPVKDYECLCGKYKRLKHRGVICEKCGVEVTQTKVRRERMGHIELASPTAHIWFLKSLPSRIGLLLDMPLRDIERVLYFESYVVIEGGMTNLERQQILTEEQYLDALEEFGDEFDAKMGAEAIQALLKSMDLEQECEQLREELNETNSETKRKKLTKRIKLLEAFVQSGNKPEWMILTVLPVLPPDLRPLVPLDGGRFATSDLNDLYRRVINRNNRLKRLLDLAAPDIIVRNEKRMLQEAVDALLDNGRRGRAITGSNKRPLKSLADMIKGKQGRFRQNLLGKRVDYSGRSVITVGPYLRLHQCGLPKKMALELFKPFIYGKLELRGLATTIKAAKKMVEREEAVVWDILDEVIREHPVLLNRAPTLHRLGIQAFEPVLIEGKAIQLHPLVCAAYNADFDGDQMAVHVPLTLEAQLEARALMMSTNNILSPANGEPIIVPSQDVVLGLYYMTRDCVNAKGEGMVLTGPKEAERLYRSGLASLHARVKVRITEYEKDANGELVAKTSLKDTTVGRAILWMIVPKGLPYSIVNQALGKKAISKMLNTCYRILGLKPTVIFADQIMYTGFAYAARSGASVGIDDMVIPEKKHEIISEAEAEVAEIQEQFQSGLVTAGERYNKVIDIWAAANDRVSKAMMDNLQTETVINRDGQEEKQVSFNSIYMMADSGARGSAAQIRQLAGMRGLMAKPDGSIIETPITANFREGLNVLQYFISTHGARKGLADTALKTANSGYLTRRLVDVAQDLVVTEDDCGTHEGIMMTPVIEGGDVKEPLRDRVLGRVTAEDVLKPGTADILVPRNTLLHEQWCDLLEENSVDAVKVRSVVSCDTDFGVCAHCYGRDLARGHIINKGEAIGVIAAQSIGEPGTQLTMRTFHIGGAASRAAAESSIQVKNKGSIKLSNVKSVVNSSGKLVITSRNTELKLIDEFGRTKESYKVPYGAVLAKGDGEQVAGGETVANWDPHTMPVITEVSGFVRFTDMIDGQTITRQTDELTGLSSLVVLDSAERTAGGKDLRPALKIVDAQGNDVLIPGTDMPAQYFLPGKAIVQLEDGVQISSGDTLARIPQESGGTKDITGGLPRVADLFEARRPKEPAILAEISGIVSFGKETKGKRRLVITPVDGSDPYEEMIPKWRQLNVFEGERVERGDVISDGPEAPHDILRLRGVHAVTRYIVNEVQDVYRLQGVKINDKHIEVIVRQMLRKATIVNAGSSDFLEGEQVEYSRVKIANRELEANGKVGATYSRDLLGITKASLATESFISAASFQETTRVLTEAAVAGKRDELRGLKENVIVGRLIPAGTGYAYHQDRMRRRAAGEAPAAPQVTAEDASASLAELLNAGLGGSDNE
T1 sequence (P00579 whole entry, further chain): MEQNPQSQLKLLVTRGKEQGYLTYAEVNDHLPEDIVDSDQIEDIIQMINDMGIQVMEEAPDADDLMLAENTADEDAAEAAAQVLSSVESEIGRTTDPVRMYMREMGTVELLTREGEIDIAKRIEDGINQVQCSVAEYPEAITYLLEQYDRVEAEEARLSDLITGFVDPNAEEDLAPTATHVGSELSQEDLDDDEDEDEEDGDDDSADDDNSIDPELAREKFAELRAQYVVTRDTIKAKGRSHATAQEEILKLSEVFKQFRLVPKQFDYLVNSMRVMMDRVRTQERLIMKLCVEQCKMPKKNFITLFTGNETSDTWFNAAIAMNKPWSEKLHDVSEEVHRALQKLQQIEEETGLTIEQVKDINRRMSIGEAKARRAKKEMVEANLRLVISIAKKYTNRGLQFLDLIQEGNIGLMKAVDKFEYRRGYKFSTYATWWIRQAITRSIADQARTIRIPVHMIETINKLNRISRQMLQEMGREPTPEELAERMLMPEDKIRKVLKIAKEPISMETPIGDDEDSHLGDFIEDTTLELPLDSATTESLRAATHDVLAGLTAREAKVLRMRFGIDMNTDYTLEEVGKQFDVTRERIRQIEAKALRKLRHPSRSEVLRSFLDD
T1 sequence (P0A8V2 whole entry): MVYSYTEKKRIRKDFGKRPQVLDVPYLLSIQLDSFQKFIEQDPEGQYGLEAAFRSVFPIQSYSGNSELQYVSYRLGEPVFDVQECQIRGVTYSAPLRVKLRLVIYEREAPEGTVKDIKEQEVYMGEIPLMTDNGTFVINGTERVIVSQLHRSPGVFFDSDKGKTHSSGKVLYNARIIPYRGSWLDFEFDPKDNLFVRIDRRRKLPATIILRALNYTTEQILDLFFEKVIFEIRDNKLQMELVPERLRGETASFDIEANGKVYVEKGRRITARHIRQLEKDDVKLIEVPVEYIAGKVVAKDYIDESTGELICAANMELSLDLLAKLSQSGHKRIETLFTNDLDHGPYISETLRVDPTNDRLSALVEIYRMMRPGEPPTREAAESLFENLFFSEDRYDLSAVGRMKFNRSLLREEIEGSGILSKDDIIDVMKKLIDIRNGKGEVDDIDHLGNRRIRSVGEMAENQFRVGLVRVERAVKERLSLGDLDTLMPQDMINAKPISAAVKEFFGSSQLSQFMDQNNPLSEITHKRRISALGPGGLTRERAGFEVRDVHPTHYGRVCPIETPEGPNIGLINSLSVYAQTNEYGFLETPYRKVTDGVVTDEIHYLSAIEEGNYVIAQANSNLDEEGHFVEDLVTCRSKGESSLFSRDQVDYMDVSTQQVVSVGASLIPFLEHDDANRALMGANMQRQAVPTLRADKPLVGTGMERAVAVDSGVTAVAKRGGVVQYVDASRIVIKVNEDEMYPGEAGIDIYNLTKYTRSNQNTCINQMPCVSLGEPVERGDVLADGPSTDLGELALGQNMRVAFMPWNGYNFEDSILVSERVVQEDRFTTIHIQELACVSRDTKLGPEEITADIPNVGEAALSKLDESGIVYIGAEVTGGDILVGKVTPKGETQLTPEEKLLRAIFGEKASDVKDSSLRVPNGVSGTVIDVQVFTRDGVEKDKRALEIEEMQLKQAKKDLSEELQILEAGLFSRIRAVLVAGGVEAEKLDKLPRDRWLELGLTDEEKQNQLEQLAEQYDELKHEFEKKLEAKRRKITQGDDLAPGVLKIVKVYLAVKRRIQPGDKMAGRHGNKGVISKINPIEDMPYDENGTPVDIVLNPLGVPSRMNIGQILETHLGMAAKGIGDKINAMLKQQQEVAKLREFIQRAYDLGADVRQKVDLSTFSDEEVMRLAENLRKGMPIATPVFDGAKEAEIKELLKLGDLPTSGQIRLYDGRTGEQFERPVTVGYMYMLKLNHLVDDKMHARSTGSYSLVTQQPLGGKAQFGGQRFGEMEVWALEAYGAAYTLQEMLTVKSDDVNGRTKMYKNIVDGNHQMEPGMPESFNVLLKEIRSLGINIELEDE

[4] = biological target: T1, E. coli RNAP holoenzyme; type: biochemical; remark: listed apart in the source
[5] = test system: Enterobacter cloacae ATCC 13047; assay: microbe, parasite or virus in culture; type: cell-based; conditions: ATCC13047
[6] = test system: Haemophilus influenzae ATCC 49247; assay: microbe, parasite or virus in culture; type: cell-based; conditions: ATCC49247
[7] = test system: Neisseria gonorrhoeae ATCC 19424; assay: microbe, parasite or virus in culture; type: cell-based; conditions: ATCC19424
[8] = biological target: Staphylococcus aureus RNAP (Staphylococcus aureus, UniProt Q5HID2+Q5HID3); assay: biochemical
[9] = biological target: Escherichia coli RNAP (Escherichia coli, UniProt P0A8T7+P0A8V2); assay: biochemical
[10] = test system: Bacillus anthracis Vollum 1B; assay: microbe, parasite or virus in culture; type: cell-based; conditions: VOLLUM1B
[11] = test system: Burkholderia mallei CHN7; assay: microbe, parasite or virus in culture; type: cell-based
[12] = test system: Pseudomonas aeruginosa ATCC 10145; assay: microbe, parasite or virus in culture; type: cell-based; conditions: ATCC10145
[13] = test system: Moraxella catarrhalis ATCC 25238; assay: microbe, parasite or virus in culture; type: cell-based; conditions: ATCC25238
[14] = test system: Yersinia pestis CO92; assay: microbe, parasite or virus in culture; type: cell-based
[15] = biological target: Thermus thermophilus RNAP (Thermus thermophilus, UniProt Q8RQE8+Q8RQE9); assay: biochemical
[16] = test system: E. coli D21f2tolC spontaneous Sal-resistant mutants; assay: Resistance levels of spontaneous Sal-resistant mutants; type: cell-based, Escherichia coli; conditions: for resistance level, all mutants: all 21 spontaneous Sal-resistant substitutions
[17] = test system: E. coli D21f2tolC; assay: Frequency of spontaneous Sal-resistant mutants; type: cell-based, Escherichia coli; conditions: E. coli D21f2tolC plated on agar containing Sal; listed as Sal
[18] = biological target: T1, E. coli RNAP holoenzyme; assay: biochemical
[19] = test system: E. coli D21f2tolC; assay: Macromolecular synthesis in bacterial cells in culture; type: cell-based, Escherichia coli; conditions: 2 x MIC; 0-30 min
Description: Macromolecular synthesis assays were performed essentially as in [Cotsonas King and Wu, 2009]. E. coli D21f2tolC ([Fralick and Burns-Keliher, 1994]) was cultured in 10 ml LB broth ([Sambrook and Russell, 2001]) at 37°C with shaking until OD600 = 0.4–0.8, and cultures were diluted with LB broth to OD600 = 0.167. Aliquots (90 µl) were dispensed into wells of a 96-well plate; were supplemented with 7 µl of pre-warmed 4 µCi/ml [^14C]-thymidine, 10 µCi/ml [^14C]-uracil, or 30 µCi/ml [^14C]-amino acid mix (PerkinElmer, Waltham, MA); were incubated 10 min at 37°C with shaking; were supplemented with 3 µl 3.3 µg/ml SalA in methanol (final concentration = 2 × MIC), 3 µl 13 µg/ml Rif in methanol (final concentration = 2 × MIC), or 3 µl solvent blank; and incubated at 37°C with shaking. At time points 0, 10, 20, and 30 min after the addition of SalA, Rif, or solvent blank, rows of samples were transferred to a second 96-well plate, containing 100 µl ice-cold 10% trichloroacetic acid (TCA) in each well, and the second plate was incubated on ice. 1 hr after the final time point, TCA precipitates were collected by filtration onto glass-fiber filters (Filtermat A; PerkinElmer; pre-rinsed twice with 5% TCA), washed with 2 × ∼300 µl 5% TCA, washed with 3 × ∼300 µl water, and washed with 2 × ∼300 µl 10% ethanol, using a Packard FilterMate 196 Cell Harvester with Matrix Filter upper head assembly (PerkinElmer). Filters were dried under a heat lamp, wrapped in a single layer of plastic wrap, and exposed to a storage phosphor screen for 18–19 hr, and analyzed by storage-phosphor scanning (Typhoon; GE Healthcare).

[20] = biological target: T1, E. coli RNAP holoenzyme; type: biochemical; remark: listed apart in the source
[21] = biological target: T1, E. coli RNAP holoenzyme; type: biochemical; remark: listed apart in the source
[22] = test system: E. coli RNAP core enzyme; type: biochemical, Escherichia coli
[23] = test system: wild-type or ΔTL E. coli RNAP core enzyme; type: biochemical, Escherichia coli
[24] = test system: E. coli D21f2tolC plasmid-borne induced Sal-resistant mutants
[25] = test system: E. coli D21f2tolC; assay: Resistance rates (fluctuation assays); conditions: each agent at 2 × MIC

Compound: ONC(=Nc1ccccc1)c1cccc(C(F)(F)F)c1 [CBR703]
- MICwild-type [1]: 6.25 µg/mL
- MICwild-type [2]: 6.25 µg/mL

Compound: CO[C@H]1/C=C/O[C@@]2(C)Oc3c(C)c(O)c4c(O)c(c(/C=N/N5CCN(C)CC5)c(O)c4c3C2=O)NC(=O)/C(C)=C\C=C\[C@H](C)[C@H](O)[C@@H](C)[C@@H](O)[C@@H](C)[C@H](OC(C)=O)[C@@H]1C [Rif, rifampin]
- MICwild-type [1]: 0.20 µg/mL
- MICwild-type [2]: 0.20 µg/mL
- effect on nucleotide addition in primer-dependent transcription initiation [3]: does not inhibit the first nucleotide-addition step
- effect on nucleotide addition in transcription elongation [4]: do not inhibit transcription elongation

Compound: CC[C@H](C)[C@H]1NC(=O)[C@@H](NC(=O)[C@H](C)[C@H](O)C(C)C)[C@@H](C)OC(=O)[C@@H]2COC(=O)CNC(=O)/C=C/[C@](O)(CBr)[C@@H](C)Oc3ccc(cc3)[C@H](NC1=O)C(=O)N(C)[C@@H](Cc1ccccc1)C(=O)N[C@H]([C@@H](C)O)C(=O)N2 [Sal-Br] ({Pentanoyl(2R-Me,3R-OH,4-Me)}-T[d(aIle)][X5][NMeF][d(aThr)]S; ester 1-C; linker 3-6 via G)
- MIC [5]: 3.13 µg/mL (≈ 2.84 µM)
- MIC [6]: 6.25 µg/mL (≈ 5.68 µM)
- MIC [7]: 25 µg/mL (≈ 22.7 µM)
- pIC50 [8]: 6.15
- pIC50 [9]: 6.05

Compound: CC[C@@H](C)[C@@H]1NC(=O)[C@H](NC(=O)[C@@H](C)[C@@H](O)C(C)C)[C@H](C)OC(=O)[C@H]2COC(=O)CNC(=O)/C=C/[C@@]3(CO3)[C@H](C)Oc3ccc(cc3)[C@H](NC1=O)C(=O)N(C)[C@H](Cc1ccccc1)C(=O)N[C@@H]([C@H](C)O)C(=O)N2 [SalA, Salinamide A]
- MIC [10]: 25 µg/mL (≈ 24.5 µM)
- MIC [5]: 1.56 µg/mL (≈ 1.53 µM)
- MIC [6]: 6.25 µg/mL (≈ 6.13 µM)
- MIC [7]: 25 µg/mL (≈ 24.5 µM)
- MIC [11]: 25 µg/mL (≈ 24.5 µM)
- MIC [12]: 50 µg/mL (≈ 49 µM)
- MIC [13]: 50 µg/mL (≈ 49 µM)
- MIC [14]: 50 µg/mL (≈ 49 µM)
- pIC50 [8]: 6.70
- pIC50 [9]: 6.70
- pIC50 [15]: < 4.00
- resistance level, all mutants [16]: ≥ 16 fold
- resistance level, nine high-level mutants ([16]; {}): ≥ 128 fold
- MICwild-type [1]: 0.049 µg/mL
- MICwild-type [2]: 0.049 µg/mL
- frequency of spontaneous mutation to Sal-resistance [17]: ~1 × 10^−9
- pKi [18]: 6.70
- mode of inhibition [18]: noncompetitive
- effect on DNA synthesis ([14C]-thymidine incorporation) [19]: no effect on DNA synthesis
- effect on RNA synthesis ([14C]-uracil incorporation) [19]: inhibits RNA synthesis at the first time point following addition
- effect on protein synthesis ([14C]-amino acids incorporation) [19]: inhibits protein synthesis at later time points
- effect on formation of RNAP-promoter open complex (RPo) [20]: does not inhibit formation of a heparin-resistant RNAP-promoter open complex
- effect on nucleotide addition in primer-dependent transcription initiation [3]: inhibits all nucleotide-addition steps
- effect on nucleotide addition in de novo transcription initiation [21]: inhibits all nucleotide-addition steps
- effect on nucleotide addition in transcription elongation [4]: inhibits nucleotide addition in transcription elongation
- effect on pyrophosphorolysis [22]: inhibits not only the forward reaction of nucleotide addition but also the reverse reaction, pyrophosphorolysis
- requirement of RNAP trigger loop for inhibition [23]: does not require the RNAP active-center subregion referred to as the ‘trigger loop’
- MICwild-type [24]: 0.049 µg/mL
- resistance rate (per generation) ([25]; listed as Sal): 2 × 10^−9 per generation

Compound: CCC(C)C1NC(=O)C(NC(=O)C(C)C(O)C(C)C)C(C)OC(=O)C2COC(=O)CNC(=O)C=CC(O)(CCl)C(C)Oc3ccc(cc3)C(NC1=O)C(=O)N(C)C(Cc1ccccc1)C(=O)NC(C(C)O)C(=O)N2 (stereo not shown) [SalB, salinamide B] (X3-TI[X4][NMeF]TS; ester 1-C; linker 3-6 via G; configuration not given here)
- MIC [10]: > 50 µg/mL
- MIC [7]: 25 µg/mL (≈ 23.7 µM)
- MIC [11]: 50 µg/mL (≈ 47.3 µM)
- MIC [12]: > 50 µg/mL
- MIC [14]: > 50 µg/mL
- pIC50 [8]: 6.10
- pIC50 [9]: 6.30
- resistance level, all mutants [16]: ≥ 16 fold
- MICwild-type [24]: 0.20 µg/mL

Compound: CNC(=O)[C@@H](C)[C@H]1C(=O)/C(=C(O)/C=C/C(C)=C/[C@@H](C)[C@H]2O[C@@]3(C)O[C@H](C=C[C@@]34CO4)[C@@H]2C)C(=O)N1[C@@H]1CC[C@H](O)[C@H](C)O1 [Stl, streptolydigin]
- MICwild-type [1]: 3.13 µg/mL
- MICwild-type [2]: 1.56 µg/mL

Compound: lipiarmycin [Lpm]
- MICwild-type [1]: 1.56 µg/mL
- MICwild-type [2]: 1.56 µg/mL
- effect on nucleotide addition in transcription elongation [4]: do not inhibit transcription elongation

Compound: myxopyronin
- MICwild-type [1]: 0.20 µg/mL
- MICwild-type [2]: 0.20 µg/mL
- effect on nucleotide addition in transcription elongation [4]: do not inhibit transcription elongation
- resistance rate (per generation) [25]: 3 × 10^−10 per generation
